In data set [1] the test system is Oryza sativa. Description: Phytotoxicity against directly seeded Oryza sativa (rice) seedlings assessed as phytotoxic activity ratings (0- no effect to 5-complete killing rating scale) at 100 g/a measured after 3 weeks post compound treatment under green house conditions. Type of data set: organism-based. The settings on record: in vivo, 504 h.
The test system of data set [2] is Schoenoplectiella juncoides. Description: Herbicidal activity against Schoenoplectiella juncoides var. Hotarui Ohwi assessed as phytotoxic activity ratings (0- no effect to 5-complete killing rating scale) at 100 g/a measured after 3 weeks post compound treatment under green house conditions. Type of data set: functional.
For data set [3], the system named is Oryza sativa. Kind of data set: Phytotoxicity against transplanted Oryza sativa (rice) seedlings assessed as phytotoxic activity ratings (0- no effect to 5-complete killing rating scale) at 100 g/a measured after 3 weeks post compound treatment under green house conditions. The data set is classed as organism-based. Particulars: in vivo, 504 h.
Data set [4] deals with Cyperus serotinus. Kind of data set: Herbicidal activity against Cyperus serotinus assessed as phytotoxic activity ratings (0- no effect to 5-complete killing rating scale) at 100 g/a measured after 3 weeks post compound treatment under green house conditions. The data set is classed as functional.
Data set [5] deals with Cyperus difformis. Description: Herbicidal activity against Cyperus difformis assessed as phytotoxic activity ratings (0- no effect to 5-complete killing rating scale) at 100 g/a measured after 3 weeks post compound treatment under green house conditions. The data set is classed as functional.
Data set [6] relates to Echinochloa oryzicola. Description: Herbicidal activity against Echinochloa oryzicola assessed as phytotoxic activity ratings (0- no effect to 5-complete killing rating scale) at 6.2 g/a measured after 3 weeks post compound treatment under green house conditions. The data set is classed as functional.
For data set [7], the system named is Echinochloa oryzicola. Description: Herbicidal activity against Echinochloa oryzicola assessed as phytotoxic activity ratings (0- no effect to 5-complete killing rating scale) at 100 g/a measured after 3 weeks post compound treatment under green house conditions. Type of data set: functional.
For data set [8], the system named is Cyperus serotinus. Description: Herbicidal activity against Cyperus serotinus assessed as phytotoxic activity ratings (0- no effect to 5-complete killing rating scale) at 3.1 to 100 g/a measured after 3 weeks post compound treatment under green house conditions. Type of data set: functional.
Data set [9] has as its system Schoenoplectiella juncoides. Kind of data set: Herbicidal activity against Schoenoplectiella juncoides var. Hotarui Ohwi assessed as phytotoxic activity ratings (0- no effect to 5-complete killing rating scale) at 6.2 g/a measured after 3 weeks post compound treatment under green house conditions. Type of data set: functional.
In data set [10] the test system is Cyperus serotinus. Kind of data set: Herbicidal activity against Cyperus serotinus assessed as phytotoxic activity ratings (0- no effect to 5-complete killing rating scale) at 3.1 g/a measured after 3 weeks post compound treatment under green house conditions. Type of data set: functional.
For data set [11], the system named is Oryza sativa. Description: Phytotoxicity against directly seeded Oryza sativa (rice) seedlings assessed as phytotoxic activity ratings (0- no effect to 5-complete killing rating scale) at 6.2 g/a measured after 3 weeks post compound treatment under green house conditions. The data set is classed as organism-based. Particulars: in vivo, 504 h.
Data set [12] deals with Cyperus difformis. Description: Herbicidal activity against Cyperus difformis assessed as phytotoxic activity ratings (0- no effect to 5-complete killing rating scale) at 6.2 g/a measured after 3 weeks post compound treatment under green house conditions. The data set is classed as functional.
In data set [13] the test system is Echinochloa oryzicola. Kind of data set: Herbicidal activity against Echinochloa oryzicola assessed as phytotoxic activity ratings (0- no effect to 5-complete killing rating scale) at 25 g/a measured after 3 weeks post compound treatment under green house conditions. Type of data set: functional.
Data set [14] has as its system Cyperus difformis. Description: Herbicidal activity against Cyperus difformis assessed as phytotoxic activity ratings (0- no effect to 5-complete killing rating scale) at 25 g/a measured after 3 weeks post compound treatment under green house conditions. Type of data set: functional.
The subject of data set [15] is Oryza sativa. Description: Phytotoxicity against directly seeded Oryza sativa (rice) seedlings assessed as phytotoxic activity ratings (0- no effect to 5-complete killing rating scale) at 12.2 g/a measured after 3 weeks post compound treatment under green house conditions. Type of data set: organism-based. Particulars: in vivo, 504 h.
Data set [16] relates to Schoenoplectiella juncoides. Kind of data set: Herbicidal activity against Schoenoplectiella juncoides var. Hotarui Ohwi assessed as phytotoxic activity ratings (0- no effect to 5-complete killing rating scale) at 3.1 g/a measured after 3 weeks post compound treatment under green house conditions. The data set is classed as functional.
The test system of data set [17] is Echinochloa oryzicola. Kind of data set: Herbicidal activity against Echinochloa oryzicola assessed as phytotoxic activity ratings (0- no effect to 5-complete killing rating scale) at 50 g/a measured after 3 weeks post compound treatment under green house conditions. Type of data set: functional.
In data set [18] the test system is Schoenoplectiella juncoides. Description: Herbicidal activity against Schoenoplectiella juncoides var. Hotarui Ohwi assessed as phytotoxic activity ratings (0- no effect to 5-complete killing rating scale) at 50 g/a measured after 3 weeks post compound treatment under green house conditions. The data set is classed as functional.
In data set [19] the test system is Cyperus serotinus. Description: Herbicidal activity against Cyperus serotinus assessed as phytotoxic activity ratings (0- no effect to 5-complete killing rating scale) at 50 g/a measured after 3 weeks post compound treatment under green house conditions. Type of data set: functional.
Data set [20] concerns Cyperus serotinus. Description: Herbicidal activity against Cyperus serotinus assessed as phytotoxic activity ratings (0- no effect to 5-complete killing rating scale) at 12.2 g/a measured after 3 weeks post compound treatment under green house conditions. Type of data set: functional.
The test system of data set [21] is Cyperus difformis. Kind of data set: Herbicidal activity against Cyperus difformis assessed as phytotoxic activity ratings (0- no effect to 5-complete killing rating scale) at 12.2 g/a measured after 3 weeks post compound treatment under green house conditions. The data set is classed as functional.
The subject of data set [22] is Schoenoplectiella juncoides. Kind of data set: Herbicidal activity against Schoenoplectiella juncoides var. Hotarui Ohwi assessed as phytotoxic activity ratings (0- no effect to 5-complete killing rating scale) at 12.2 g/a measured after 3 weeks post compound treatment under green house conditions. The data set is classed as functional.
For data set [23], the system named is Cyperus difformis. Kind of data set: Herbicidal activity against Cyperus difformis assessed as phytotoxic activity ratings (0- no effect to 5-complete killing rating scale) at 50 g/a measured after 3 weeks post compound treatment under green house conditions. Type of data set: functional.

Active and inactive are the calls of the source. No rule for the calls is given here.

Regarding `CCCc1ccc(NC(=O)N[C@H](C)c2ccccc2)cc1`, the Activity stood at 10% in the data set with Oryza sativa [1]; 40% in data set [2]; 0% in the data set with Oryza sativa [3]; 0% in the data set with Cyperus serotinus [4]; 40% in the data set on Cyperus difformis [5]; 80% with Echinochloa oryzicola [6].
For `CC(C)c1ccc(NC(=O)N[C@@H](C)c2ccccc2)cc1`, the Activity (in the data set with Oryza sativa [1]; in [2]; in the data set with Oryza sativa [3]; in the data set with Cyperus serotinus [4]; in the data set on Echinochloa oryzicola [7]; with Cyperus difformis [5]) was 0% throughout. In the data set with Cyperus serotinus [8], the result was inactive.
In the case of `C[C@@H](NC(=O)Nc1ccccc1C(C)(C)C)c1ccccc1`, the Activity in data set [9] is recorded as 80%; in the data set with Cyperus serotinus [10], 80%; in the data set on Oryza sativa [3], 0%; with Oryza sativa [11], 80%; with Cyperus difformis [12] it was 80%; in the data set with Echinochloa oryzicola [6], 80%.
Turning to `C[C@H](NC(=O)Nc1cccc(F)c1F)c1ccccc1`, the Activity with Echinochloa oryzicola [13] was found to be 80%; with Oryza sativa [1], 10%; in data set [2] it was 0%; in the data set on Oryza sativa [3], 0%; in the data set on Cyperus difformis [5], 0%. The result in the data set on Cyperus serotinus [8] was inactive.
As to `C[C@H](NC(=O)Nc1ccccc1)c1ccccc1`, the Activity is on record as 80% with Echinochloa oryzicola [13]; 10% in the data set with Oryza sativa [1]; 0% in data set [2]; 0% in the data set on Oryza sativa [3]; 0% with Cyperus serotinus [4]; 0% in the data set on Cyperus difformis [5].
As to `CCc1ccccc1NC(=O)N[C@H](C)c1ccccc1`, the Activity worked out at 0% with Oryza sativa [1]; 10% in data set [2]; 80% in the data set on Cyperus serotinus [10]; 0% in the data set on Oryza sativa [3]; 80% in the data set on Cyperus difformis [14]; 0% with Echinochloa oryzicola [7].
Consider `CC(C)c1ccccc1NC(=O)N[C@H](C)c1ccccc1`, for which the Activity in [9] was 80%; in the data set with Oryza sativa [15], 80%; with Cyperus serotinus [10], 80%; in the data set with Oryza sativa [3], 0%; with Cyperus difformis [12], 80%; with Echinochloa oryzicola [6], 80%.
In the case of `Cc1ccc(NC(=O)NC(C)(C)c2ccccc2)cc1` [DAIMURON], the Activity in [16] was found to be 80%; with Echinochloa oryzicola [17], 80%; in the data set with Oryza sativa [1], 10%; in the data set on Oryza sativa [3] it was 0%; in the data set with Cyperus difformis [12], 80%.
On to `Cc1ccc(NC(=O)N[C@H](C)c2ccccc2)cc1`, for which the Activity in the data set on Oryza sativa [1] is 0%; in the data set with Oryza sativa [3] it was 0%; in the data set on Cyperus difformis [14], 80%; in the data set with Cyperus serotinus [4], 40%; in the data set with Echinochloa oryzicola [7], 10%; in data set [18], 80%.
Take `Cc1ccccc1NC(=O)N[C@H](C)c1ccccc1`: the Activity is on record as 0% with Oryza sativa [1]; 0% in the data set with Oryza sativa [3]; 0% in the data set on Echinochloa oryzicola [7]; 80% in the data set on Cyperus serotinus [19]; 10% in the data set with Cyperus difformis [5].
On to `C[C@@H](NC(=O)Nc1cccc(C(F)(F)F)c1)c1ccccc1`, for which the Activity with Oryza sativa [1] amounted to 10%; with Oryza sativa [3], 0%; in the data set with Cyperus serotinus [4] it was 0%; in the data set on Echinochloa oryzicola [7], 10%; in the data set with Cyperus difformis [5] it was 40%; in data set [18] it was 80%.
Consider `CC(C)c1cccc(NC(=O)N[C@H](C)c2ccccc2)c1`, for which the Activity was determined as 0% in the data set on Oryza sativa [1]; 40% in data set [2]; 80% with Cyperus serotinus [20]; 0% in the data set with Oryza sativa [3]; 80% in the data set on Cyperus difformis [14]; 0% with Echinochloa oryzicola [7].
Take `C[C@H](NC(=O)Nc1cc(F)ccc1F)c1ccccc1`: the Activity stood at 80% in the data set on Echinochloa oryzicola [13]; 10% with Oryza sativa [1]; 0% in data set [2]; 0% in the data set with Oryza sativa [3]; 0% in the data set with Cyperus difformis [5]. Besides, in the data set on Cyperus serotinus [8], the outcome was inactive.
For the compound `CCc1cccc(NC(=O)N[C@H](C)c2ccccc2)c1`, the Activity in the data set on Oryza sativa [1] is 0%; in [2], 40%; in the data set on Cyperus difformis [21] it was 80%; in the data set on Oryza sativa [3], 0%; in the data set with Cyperus serotinus [4], 40%; with Echinochloa oryzicola [7], 40%.
Consider `COc1cccc(NC(=O)N[C@H](C)c2ccccc2)c1`, for which the Activity came out at 10% with Oryza sativa [1]; 0% with Oryza sativa [3]; 10% in the data set with Cyperus serotinus [4]; 10% in the data set on Echinochloa oryzicola [7]; 40% in the data set on Cyperus difformis [5]; 80% in the data set with Cyperus serotinus [8]. Moreover, in [18], the Activity is 80%.
For the compound `Cc1cccc(NC(=O)N[C@@H](C)c2ccccc2)c1`, the Activity in the data set on Oryza sativa [1] is 10%; in data set [2] it was 0%; in the data set on Oryza sativa [3], 0%; in the data set with Cyperus serotinus [4], 0%; in the data set with Echinochloa oryzicola [7] it was 10%; with Cyperus difformis [5], 0%.
Turning to `C[C@@H](NC(=O)Nc1ccccc1C(F)(F)F)c1ccccc1`, the Activity was 10% with Oryza sativa [1]; 80% in data set [22]; 80% in the data set on Cyperus serotinus [10]; 80% in the data set on Cyperus difformis [21]; 0% in the data set on Oryza sativa [3]; 40% in the data set with Echinochloa oryzicola [7].
As to `CC(C)c1cccc(NC(=O)N[C@@H](C)c2ccccc2)c1`, the Activity in the data set on Cyperus difformis [23] stood at 80%; in the data set with Oryza sativa [1], 0%; with Oryza sativa [3], 0%; in the data set on Cyperus serotinus [4], 10%; with Echinochloa oryzicola [7] it was 0%; with Cyperus serotinus [8], 80%.
With `C[C@H](NC(=O)Nc1ccccc1F)c1ccccc1`, the Activity with Oryza sativa [1] is 40%; in data set [2], 0%; in the data set with Oryza sativa [3], 0%; with Cyperus serotinus [4] it was 0%; in the data set on Cyperus difformis [5], 10%; in the data set on Echinochloa oryzicola [6], 80%.
Consider `Cc1cc(F)ccc1NC(=O)N[C@@H](C)c1ccccc1`, for which the Activity turned out to be 0% in the data set on Oryza sativa [1]; 40% in data set [2]; 0% with Oryza sativa [3]; 40% in the data set with Cyperus serotinus [4]; 0% in the data set on Echinochloa oryzicola [7]; 10% with Cyperus difformis [5].
Take `C[C@H](NC(=O)Nc1cccc(C(F)(F)F)c1)c1ccccc1`: the Activity in the data set on Oryza sativa [1] was 0%; in [2], 0%; with Oryza sativa [3], 0%; with Cyperus serotinus [4] it was 0%; with Echinochloa oryzicola [7], 10%; in the data set on Cyperus difformis [5] it was 10%.

For the origin of these results see ChEMBL document CHEMBL3046383, “Enantioselective Herbicidal Activity of Chiral α-Methylbenzylphenylureas against Cyperaceae and Echinochloa Paddy Weeds” (Biosci Biotechnol Biochem, 1998).
